One data set deals with S. aureus S1. Description: Antibiotic susceptibility, agar disc diffusion. The format is cell-based, Staphylococcus aureus. The note with it: agar disc diffusion method. The method, then:
(§1) S1 was isolated from the blood of a patient and S2 was isolated from the sputum of a neonate. After isolation and identification, S. aureus strains were assessed for their susceptibility to various antibiotics, using the agar disc diffusion method. S1 was found Methicillin resistant (MRSA) and is also resistant to Amoxicillin, Oxacillin, Amikacin, Tobramycin, Fluoroquinolones, Erythromycin and Clindamycin. However, it was susceptible to Gentamicin, Synercid, Co-trimoxazole, Rifampicin, Fusidic acid, Vancomycin, Teicoplanin and Linezolid.
For orientation: Agar diffusion results depend on both activity and mobility in agar.

Another data set deals with S. aureus S2. Kind of data set: Antibiotic susceptibility, agar disc diffusion. The class given is cell-based, Staphylococcus aureus. Conditions: agar disc diffusion method. The protocol:
as §1

A further data set concerns S. aureus. Kind of data set: Antibacterial activity against S. aureus, (strains together or not specified). The format is cell-based, Staphylococcus aureus. The method, then:
(§2) Different S. aureus strains described above were first pre-cultured aerobically at 37°C for 20 h in a Mueller-Hinton-Broth (MHB) medium, pH 7.3 (Difco Laboratories, Detroit, MI). Bacteria were suspended at absorbance of 0.001 at 620 nm in the MHB medium. […] Ten µl final volumes (10–200 µg/mL) of synthetic peptides (LL-37, bCAT, hCAT and bCTL) were incubated in microtitration plates with 90 µl of a mid-logarithmic phase culture of bacteria, with a starting absorbance of 0.001 at 620 nm. In the initial inoculi, bacteria were quantified by the agar plate spreading method which was 5×10^5 colony forming units (CFU)/mL. Tetracycline (10 mg/L) and Cefotaxime (0.1 mg/L) were used as positive controls. Microbial growth was assessed by the increase of absorbance after 24 h incubation at 37°C., [29] The A620 nm value of control cultures growing in the absence of peptide and antibiotics was defined as 100% growth. A620 nm zero with the antibiotics (Tetracycline and Cefotaxime) was taken as 100% inhibition. Absence of bacterial growth was verified by agar plate spreading. Each assay was performed in triplicates.

A short description of data set [1]: S. aureus S2 (MSSA) culture supernatant, MHB medium, filtered. The note with it: 37°C, up to 24 h.
Data set [2] is described as follows: S. aureus ATCC25923 culture supernatant (S25923), MHB medium, filtered. The note with it: S. aureus ATCC25923, 37°C, up to 24 h.
Data set [3] in a line: S. aureus ATCC25923 culture supernatant with protease inhibitors (Pi+S25923). The note with it: S. aureus ATCC25923, 37°C, up to 24 h.
A short description of data set [4]: S. aureus S1 culture supernatant with protease inhibitors (Pi+S1). The note with it: S. aureus S1 (MRSA), 37°C, up to 24 h.
A short description of data set [5]: S. aureus ATCC49775 culture supernatant with protease inhibitors (Pi+S49775). Conditions: S. aureus ATCC49775, 37°C, up to 24 h.
A short description of data set [6]: S. aureus S1 (MRSA) culture supernatant, MHB medium, filtered. The note with it: 37°C, up to 24 h.
Data set [7] is described as follows: S. aureus ATCC49775 culture supernatant (S49775), MHB medium, filtered. Conditions: S. aureus ATCC49775, 37°C, up to 24 h.
Data set [8] is described as follows: S. aureus S2 culture supernatant with protease inhibitors (Pi+S2). Conditions: S. aureus S2 (MSSA), 37°C, up to 24 h.
The next data set is described as follows: MHB medium. Conditions: 37°C, up to 24 h.
The test system of data set [9] is staphylococcal proteases released into bacterial supernatants. Conditions: 37°C, 24 h; for degradation by culture supernatant of S2 / degradation by culture supernatants S49775, S25923 and S1: peptide at MIC concentration, no protease inhibitors, RP-HPLC 214 nm, sequencing, MALDI-TOF, triplicate wells.
Experimental: S. aureus strains were precultured and plated on the agar plates and cultivated for 24 h at 37°C. After incubation, one colony per isolate was transferred to 10 mL of the MHB medium and incubated at 37°C for about 30 h to late stationary growth phase. After incubation, cultures were centrifuged at 10,000×g for 15 min and supernatants were filtered using a 0.22 µM Millex®-GV (Millipore, Carrigtwohill, Ireland) to eliminate bacteria. The supernatants were stored at −20°C until further use. In order to check sterility, 1 mL of each supernatant was incubated at 37°C for 48 h. Absence of a colony was interpreted as lack of viable bacteria.
(§4) Triplicate wells were treated for each concentration of peptide. In parallel, several controls were performed: with and without peptides in MHB medium.
For which, protease inhibitor cocktail (complete protease inhibitors except metalloproteases) (Roche Diagnostic GmbH, Mannheim, Germany) supplemented with 100 µM of 1–10 phenanthroline (metalloprotease inhibitor) (Sigma Aldrich GmbH, Steinheim, Germany) was added to bacterial supernatants before the addition of synthetic peptides. The whole suspension was incubated at 37°C for 24 h prior to being analyzed by RP-HPLC.
(§5) The synthetic peptides treated with bacterial supernatants and different controls including culture medium, bacterial supernatants, and synthetic peptides were separated using a Dionex HPLC system (Ultimate 3000; Sunnyvale, CA USA) on a Nucleosil reverse-phase 300–5C18-column (4×250 mm; particle size, 5 µm; porosity, 300 Å) (Macherey Nagel Hoerdt, France). Absorbance was monitored at 214 nm, and the solvent system consisted of 0.1% (v/v) TFA in water (solvent A) and 0.09% (v/v) TFA in 70% (v/v) acetonitrile-water (solvent B). Elution was performed at a flow rate of 700 µL/min, with the gradient as indicated on chromatograms. Fractions were collected with one min time interval. They were subsequently concentrated by evaporation by using a speed-vac, however not allowing them to dry completely.
The N-terminal sequence of purified peptides was determined by automatic Edman degradation analysis on a Procise microsequencer (Applied Biosystems, Courtaboeuf, France). Samples purified by HPLC were loaded on polybrene-treated glass-fiber filters. Phenylthiohydantoin-amino acids (Pth-Xaa) were identified by chromatography on a C18 column (PTH C-18, 2.1 mm×200 mm).
Mass determination was carried out on a Brucker BIFLEX™ Matrix-Assisted Laser Desorption Ionization – Time-Of-Flight mass spectrometer (MALDI-TOF) (equipped with the high resolution optics (SCOUT™) with X–Y multi-sample probe, a gridless reflector and with the HIMAS™ linear detector). With a maximum accelerating potential of 30 kV, the system can be operated either in linear or the reflective mode. Ionization was carried out with a 337-nm beam from a nitrogen laser with a repetition rate of 3 Hz. The output signal from the detector was digitized at a sampling rate of 250 MHz in linear mode and 500 MHz in reflector mode using a 1 GHz digital oscilloscope (Lecroy model). Brucker supplied software hosted in Sun sparcworkstation was used for data processing and the instrumental control. […] These studies were realized using the matrix α-cyano-4-hydroxycinnamic acid, obtained from Sigma, and prepared as a saturated solution in acetone. A total of 1–2 µl of the sample matrix aliquot solution was deposited on the probe and dried by ambient air. A thin layer matrix crystal was obtained after rapid spreading and evaporation. […] A micromolar analyte solution was applied to the matrix and allowed to dry under moderate vacuum. The whole preparation was washed by 1 μl of trifluoroacetic acid (0.5%) aqueous solution. This cleaning procedure helps remove remaining alkaline cations and often leads to an increase in sensitivity.
The test system of a further data set is S. aureus ATCC49775. The format is cell-based, Staphylococcus aureus. Conditions: ATCC49775, 24 h, pH 7.3. The protocol:
as §2
(§3) The MIC values (µg/mL) are reported as means of three independent experiments. To determine significance, between different peptides (rows) and bacterial strains (columns), one way ANOVA was used. Overall significance and correlation was evaluated by 4×4 factorial ANOVA for independent samples. Significance was accepted at p≤0.05.

The test system of a further data set is S. aureus ATCC25923. The class given is cell-based, Staphylococcus aureus. Conditions: ATCC25923, 24 h, pH 7.3. The protocol: as §2, §3
Another data set concerns S. aureus S1 (MRSA). The class given is cell-based, Staphylococcus aureus. The note with it: S1, 24 h, pH 7.3. The method, then:
as §1, §2, §3

In the next data set the test system is S. aureus S2 (MSSA). The class given is cell-based, Staphylococcus aureus. Conditions: S2, 24 h, pH 7.3. The protocol: as §1, §2, §3
For data set [10] the following is noted: MHB medium without supernatant, 37°C, 24 h; RP-HPLC.
Experimental: as §4, §5

The results in this text go back to publication PMC3722296 (PLoS ONE, 2013).

“Also recorded” adds a separate entry of the source. Where no end group is shown, it is not given here.

As a reminder, the MIC is the lowest concentration that inhibits growth of the organism. Low readings indicate inhibition by little substance, high ones a need for much substance.

Turning to `NCC[C@H](O)C(=O)N[C@@H]1C[C@H](N)[C@@H](O[C@H]2O[C@H](CN)[C@@H](O)[C@H](O)[C@H]2O)[C@H](O)[C@H]1O[C@H]1O[C@H](CO)[C@@H](O)[C@H](N)[C@H]1O` [Amikacin], the “susceptibility of strain S1” value with S. aureus S1 is reported as “resistant”.

For the compound `CC1(C)S[C@@H]2[C@H](NC(=O)[C@H](N)c3ccc(O)cc3)C(=O)N2[C@H]1C(=O)O` [Amoxicillin], the “susceptibility of strain S1” value in the data set on S. aureus S1 is reported as “resistant”.

For the compound `CCC[C@@H]1C[C@@H](C(=O)N[C@@H]([C@H]2O[C@H](SC)[C@H](O)[C@@H](O)[C@H]2O)[C@H](C)Cl)N(C)C1` [Clindamycin], in the data set with S. aureus S1, the “susceptibility of strain S1” value was “resistant”.

Consider `CC[C@H]1OC(=O)[C@H](C)[C@@H](O[C@H]2C[C@@](C)(OC)[C@@H](O)[C@H](C)O2)[C@H](C)[C@@H](O[C@@H]2O[C@H](C)C[C@H](N(C)C)[C@H]2O)[C@](C)(O)C[C@@H](C)C(=O)[C@H](C)[C@@H](O)[C@]1(C)O` [Erythromycin], for which the “susceptibility of strain S1” value in the data set on S. aureus S1 is reported as “resistant”.

On to `CC(=O)O[C@H]1C[C@@]2(C)[C@@H](C[C@@H](O)[C@H]3[C@@]4(C)CC[C@@H](O)[C@@H](C)[C@@H]4CC[C@@]32C)/C1=C(\CCC=C(C)C)C(=O)O` [Fusidic acid], for which the “susceptibility of strain S1” value in the data set on S. aureus S1 is reported as “susceptible”.

For `CNC(C)C1CCC(N)C(OC2C(N)CC(N)C(OC3OCC(C)(O)C(NC)C3O)C2O)O1` (stereo not drawn) [Gentamicin], in the data set on S. aureus S1, the “susceptibility of strain S1” value is on record as “susceptible”.

Regarding `CC(=O)NC[C@H]1CN(c2ccc(N3CCOCC3)c(F)c2)C(=O)O1` [Linezolid], in the data set with S. aureus S1, the “susceptibility of strain S1” value was “susceptible”.

Turning to `COc1cccc(OC)c1C(=O)N[C@@H]1C(=O)N2[C@@H]1SC(C)(C)[C@@H]2C(=O)O` [Methicillin], in the data set on S. aureus S1, the “susceptibility of strain S1” value is “resistant”. For the same compound, in the data set on S. aureus S2, the “susceptibility of strain S2” value is listed as “susceptible”.

In the case of `Cc1onc(-c2ccccc2)c1C(=O)N[C@@H]1C(=O)N2[C@@H]1SC(C)(C)[C@@H]2C(=O)O` [Oxacillin], in the data set with S. aureus S1, the “susceptibility of strain S1” value is reported as “resistant”.

As for `CO[C@H]1/C=C/O[C@@]2(C)Oc3c(C)c(O)c4c(O)c(c(/C=N/N5CCN(C)CC5)c(O)c4c3C2=O)NC(=O)/C(C)=C\C=C\[C@H](C)[C@H](O)[C@@H](C)[C@@H](O)[C@@H](C)[C@H](OC(C)=O)[C@@H]1C` [Rifampicin], in the data set on S. aureus S1, the “susceptibility of strain S1” value is “susceptible”.

Consider `NC[C@H]1O[C@H](O[C@H]2[C@H](O)[C@@H](O[C@H]3O[C@H](CO)[C@@H](O)[C@H](N)[C@H]3O)[C@H](N)C[C@@H]2N)[C@H](N)C[C@@H]1O` [Tobramycin], for which the “susceptibility of strain S1” value in the data set on S. aureus S1 was “resistant”.

In the case of `CN[C@H](CC(C)C)C(=O)N[C@H]1C(=O)N[C@@H](CC(N)=O)C(=O)N[C@H]2C(=O)N[C@H]3C(=O)N[C@H](C(=O)N[C@H](C(=O)O)c4cc(O)cc(O)c4-c4cc3ccc4O)[C@H](O)c3ccc(c(Cl)c3)Oc3cc2cc(c3O[C@@H]2O[C@H](CO)[C@@H](O)[C@H](O)[C@H]2O[C@H]2C[C@](C)(N)[C@H](O)[C@H](C)O2)Oc2ccc(cc2Cl)[C@H]1O` [Vancomycin], in the data set with S. aureus S1, the “susceptibility of strain S1” value is “susceptible”.

Turning to Co-trimoxazole, the “susceptibility of strain S1” value with S. aureus S1 is given as “susceptible”.

With “FLE-RSMRLSFRARG [shorter peptide lacking the C-terminal end (YGFR) of CTL]”, the “concentration at which antibacterial activities are displayed” value with S. aureus (data not shown) is reported as 200 µg/mL.

As for “FLE-RSMRLSFRARGYGFR [FLE-CTL, CTL derived peptide with a hydrophobic N-terminal end]”, the “antibacterial activity against S. aureus” value in the data set with S. aureus (at 400 µg/mL, recent experiments) was “inactive”.

As for RSMRLSFRARGYGFR, the not cleaved entry in [1] was “not degraded by any of the staphylococcal strains tested”; in [2], “not degraded by any of the staphylococcal strains tested”; in data set [3], “remains unaffected by S. aureus supernatants with or without protease inhibitors”; in data set [4], “remains unaffected by S. aureus supernatants with or without protease inhibitors”; in [5] it was “remains unaffected by S. aureus supernatants with or without protease inhibitors”; in data set [6], “not degraded by any of the staphylococcal strains tested”. The not cleaved result in data set [7] is listed as “not degraded by any of the staphylococcal strains tested”; in [8], “remains unaffected by S. aureus supernatants with or without protease inhibitors”.

As for RSMRLSFRARGYGFRGPGLQL, the cleaved bond entry in data set [1] is listed as “S349-F350; also recorded: G356-F357”; in data set [2] it was “L348-S349”; in [6] it was “L348-S349”; in data set [7], “L348-S349”. The not cleaved result in data set [3] is reported as “not cleaved by any of the four strain supernatants tested in presence of protease inhibitors”; in [4], “not cleaved by any of the four strain supernatants tested in presence of protease inhibitors”; in data set [5], “not cleaved by any of the four strain supernatants tested in presence of protease inhibitors”; in “MHB medium” it was “In MHB medium, bCAT was not processed”; in data set [8] it was “not cleaved by any of the four strain supernatants tested in presence of protease inhibitors”.

For the compound “RSMRLSFRARGYGFRGPGLQL [bCAT, catestatin]”, the “degradation by culture supernatant of S2” value in data set [9] is recorded as “largely cleaved”. For the same compound, the “degradation by culture supernatants S49775, S25923 and S1” value in data set [9] is “processed”. Also, the “degradation by four strain supernatants in presence of protease inhibitors” value in [9] (protease inhibitor cocktail + 100 µM 1–10 phenanthroline, RP-HPLC) is reported as “not cleaved”. Further, the MIC against S. aureus ATCC49775 was 100 µg/mL; against S. aureus ATCC25923 it was 100 µg/mL; against S. aureus S1 (MRSA) it was 100 µg/mL; against S. aureus S2 (MSSA), 115 µg/mL. Further, in [10], the “processing in MHB medium” value was “not processed”.

Regarding “SSMKLSFRARAYGFRGPGPQL [hCAT, catestatin]”, the “degradation by culture supernatant of S2” value in data set [9] was “completely cleaved”. In addition, the “degradation by culture supernatants S49775, S25923 and S1” value in data set [9] is on record as “partially processed”. Besides, the MIC in the data set with S. aureus ATCC49775 is 125 µg/mL; against S. aureus ATCC25923, 135 µg/mL; in the data set on S. aureus S1 (MRSA) it was 130 µg/mL; in the data set on S. aureus S2 (MSSA), 150 µg/mL. The “processing in MHB medium” value in data set [10] is “not cleaved”.

As to SSMKLSFRARGYGFRGPGPQL, the cleaved bond result in data set [1] is “G364-F365; also recorded: S357-F358”; in data set [2], “L356-S357”; in data set [6], “L356-S357”; in data set [7], “L356-S357”. The not cleaved result in “MHB medium” is given as “In presence of MHB medium, hCAT was not cleaved”.

As to Teicoplanin, the “susceptibility of strain S1” value with S. aureus S1 is “susceptible”.
